Reference: ChEMBL document CHEMBL4616677, “Preclinical Lead Optimization of a 1,2,4-Triazole Based Tankyrase Inhibitor” (J Med Chem, 2020)
Activity calls are given as the source filed them. The calls are words filed in the database; no cut-off is given here.

Legend:
RKO = test: Antiproliferative activity against APC wild-type human RKO cells at 10 uM measured after 5 days by MTS assay; format: functional, cell-based
[1] = Apparent permeability across apical to basolateral side in human Caco2 cells at 10 uM measured after 2 hrs by lucifer yellow based LC-MS/MS analysis; format: ADME, cell-based; settings: Caco-2
[2] = Clearance in ICR mouse at 5 mg/kg, po by LC-MS/MS analysis; format: ADME, organism-based; settings: in vivo
[3] = Genotoxicity in Salmonella typhimurium TA98 in presence or absence of rat S9 fraction by mini-Ames test; format: toxicity; settings: salmonella enterica subsp. enterica serovar typhimurium
[4] = molecular target: T1, Protein mono-ADP-ribosyltransferase PARP3 (Homo sapiens, UniProt Q9Y6F1); test: Inhibition of ARTD3 (unknown origin) measured after 4 hrs in presence of NAD+ by fluorescence assay
T1 sequence (Q9Y6F1 whole entry): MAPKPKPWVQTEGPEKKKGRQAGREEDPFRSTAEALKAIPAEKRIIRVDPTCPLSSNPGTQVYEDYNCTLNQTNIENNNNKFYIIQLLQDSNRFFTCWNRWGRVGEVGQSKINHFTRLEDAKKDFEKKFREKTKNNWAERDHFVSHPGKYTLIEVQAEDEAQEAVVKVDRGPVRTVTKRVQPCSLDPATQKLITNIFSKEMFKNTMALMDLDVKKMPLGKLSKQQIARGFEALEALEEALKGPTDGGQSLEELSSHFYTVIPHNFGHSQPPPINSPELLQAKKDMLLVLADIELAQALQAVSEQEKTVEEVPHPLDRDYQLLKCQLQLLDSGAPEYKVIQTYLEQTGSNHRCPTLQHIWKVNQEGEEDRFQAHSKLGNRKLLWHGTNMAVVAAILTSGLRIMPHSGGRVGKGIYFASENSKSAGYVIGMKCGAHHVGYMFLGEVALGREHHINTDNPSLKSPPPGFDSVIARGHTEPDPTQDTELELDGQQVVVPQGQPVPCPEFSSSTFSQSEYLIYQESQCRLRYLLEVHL

[5] = Genotoxicity in Salmonella typhimurium TA100 in presence or absence of rat S9 fraction by mini-Ames test; format: toxicity; settings: salmonella enterica subsp. enterica serovar typhimurium
[6] = molecular target: Poly [ADP-ribose] polymerase 2 (Homo sapiens, UniProt Q9UGN5); test: Inhibition of ARTD2 (unknown origin) measured after 30 mins in presence of NAD+ by fluorescence assay
Chain of Poly [ADP-ribose] polymerase 2 (Q9UGN5 whole entry): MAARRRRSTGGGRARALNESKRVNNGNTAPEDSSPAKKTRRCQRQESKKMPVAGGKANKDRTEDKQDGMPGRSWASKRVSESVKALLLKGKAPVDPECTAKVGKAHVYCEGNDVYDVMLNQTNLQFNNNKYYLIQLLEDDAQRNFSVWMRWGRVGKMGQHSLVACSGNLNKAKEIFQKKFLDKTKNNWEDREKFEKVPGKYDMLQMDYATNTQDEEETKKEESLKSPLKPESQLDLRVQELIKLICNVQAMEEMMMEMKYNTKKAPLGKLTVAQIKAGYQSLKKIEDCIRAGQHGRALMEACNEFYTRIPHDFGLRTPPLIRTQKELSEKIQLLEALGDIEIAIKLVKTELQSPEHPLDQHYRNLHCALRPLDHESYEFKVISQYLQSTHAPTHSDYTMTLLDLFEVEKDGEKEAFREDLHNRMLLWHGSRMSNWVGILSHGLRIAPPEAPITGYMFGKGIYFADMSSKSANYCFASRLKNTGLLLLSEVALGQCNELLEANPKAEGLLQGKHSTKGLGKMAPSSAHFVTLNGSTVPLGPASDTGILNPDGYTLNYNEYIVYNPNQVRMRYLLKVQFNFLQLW

[7] = molecular target: Poly [ADP-ribose] polymerase 1 (Homo sapiens, UniProt P09874); test: Inhibition of ARTD1 (unknown origin) measured after 30 mins in presence of NAD+ by fluorescence assay
Chain of Poly [ADP-ribose] polymerase 1 (P09874 whole entry): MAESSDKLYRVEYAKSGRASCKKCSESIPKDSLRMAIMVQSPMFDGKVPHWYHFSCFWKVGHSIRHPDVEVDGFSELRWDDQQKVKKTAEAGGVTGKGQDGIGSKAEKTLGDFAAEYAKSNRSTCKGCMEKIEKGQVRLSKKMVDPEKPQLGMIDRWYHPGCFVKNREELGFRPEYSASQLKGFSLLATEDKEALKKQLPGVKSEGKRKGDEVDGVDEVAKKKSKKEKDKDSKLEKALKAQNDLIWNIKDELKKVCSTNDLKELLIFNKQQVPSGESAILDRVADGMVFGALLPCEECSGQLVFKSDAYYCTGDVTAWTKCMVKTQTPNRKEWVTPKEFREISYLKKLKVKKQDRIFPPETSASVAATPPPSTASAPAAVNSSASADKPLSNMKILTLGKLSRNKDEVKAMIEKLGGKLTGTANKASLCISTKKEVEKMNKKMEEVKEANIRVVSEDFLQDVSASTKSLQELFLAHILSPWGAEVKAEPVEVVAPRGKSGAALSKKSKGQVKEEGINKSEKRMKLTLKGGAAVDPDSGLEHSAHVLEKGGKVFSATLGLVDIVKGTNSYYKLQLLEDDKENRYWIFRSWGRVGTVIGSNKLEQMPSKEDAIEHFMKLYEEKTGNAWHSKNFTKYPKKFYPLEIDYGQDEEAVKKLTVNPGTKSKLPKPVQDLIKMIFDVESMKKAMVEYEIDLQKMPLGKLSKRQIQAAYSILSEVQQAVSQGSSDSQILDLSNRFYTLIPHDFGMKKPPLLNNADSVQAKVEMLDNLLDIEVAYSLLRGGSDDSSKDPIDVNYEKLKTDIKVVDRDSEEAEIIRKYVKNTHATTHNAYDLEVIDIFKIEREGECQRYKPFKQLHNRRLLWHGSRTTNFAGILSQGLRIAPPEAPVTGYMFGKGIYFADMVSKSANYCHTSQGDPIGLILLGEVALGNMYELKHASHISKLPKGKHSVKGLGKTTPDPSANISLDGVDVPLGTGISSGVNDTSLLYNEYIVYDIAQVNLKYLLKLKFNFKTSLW

[8] = molecular target: Protein mono-ADP-ribosyltransferase PARP4 (Homo sapiens, UniProt Q9UKK3)
Chain of Protein mono-ADP-ribosyltransferase PARP4 (Q9UKK3 whole entry): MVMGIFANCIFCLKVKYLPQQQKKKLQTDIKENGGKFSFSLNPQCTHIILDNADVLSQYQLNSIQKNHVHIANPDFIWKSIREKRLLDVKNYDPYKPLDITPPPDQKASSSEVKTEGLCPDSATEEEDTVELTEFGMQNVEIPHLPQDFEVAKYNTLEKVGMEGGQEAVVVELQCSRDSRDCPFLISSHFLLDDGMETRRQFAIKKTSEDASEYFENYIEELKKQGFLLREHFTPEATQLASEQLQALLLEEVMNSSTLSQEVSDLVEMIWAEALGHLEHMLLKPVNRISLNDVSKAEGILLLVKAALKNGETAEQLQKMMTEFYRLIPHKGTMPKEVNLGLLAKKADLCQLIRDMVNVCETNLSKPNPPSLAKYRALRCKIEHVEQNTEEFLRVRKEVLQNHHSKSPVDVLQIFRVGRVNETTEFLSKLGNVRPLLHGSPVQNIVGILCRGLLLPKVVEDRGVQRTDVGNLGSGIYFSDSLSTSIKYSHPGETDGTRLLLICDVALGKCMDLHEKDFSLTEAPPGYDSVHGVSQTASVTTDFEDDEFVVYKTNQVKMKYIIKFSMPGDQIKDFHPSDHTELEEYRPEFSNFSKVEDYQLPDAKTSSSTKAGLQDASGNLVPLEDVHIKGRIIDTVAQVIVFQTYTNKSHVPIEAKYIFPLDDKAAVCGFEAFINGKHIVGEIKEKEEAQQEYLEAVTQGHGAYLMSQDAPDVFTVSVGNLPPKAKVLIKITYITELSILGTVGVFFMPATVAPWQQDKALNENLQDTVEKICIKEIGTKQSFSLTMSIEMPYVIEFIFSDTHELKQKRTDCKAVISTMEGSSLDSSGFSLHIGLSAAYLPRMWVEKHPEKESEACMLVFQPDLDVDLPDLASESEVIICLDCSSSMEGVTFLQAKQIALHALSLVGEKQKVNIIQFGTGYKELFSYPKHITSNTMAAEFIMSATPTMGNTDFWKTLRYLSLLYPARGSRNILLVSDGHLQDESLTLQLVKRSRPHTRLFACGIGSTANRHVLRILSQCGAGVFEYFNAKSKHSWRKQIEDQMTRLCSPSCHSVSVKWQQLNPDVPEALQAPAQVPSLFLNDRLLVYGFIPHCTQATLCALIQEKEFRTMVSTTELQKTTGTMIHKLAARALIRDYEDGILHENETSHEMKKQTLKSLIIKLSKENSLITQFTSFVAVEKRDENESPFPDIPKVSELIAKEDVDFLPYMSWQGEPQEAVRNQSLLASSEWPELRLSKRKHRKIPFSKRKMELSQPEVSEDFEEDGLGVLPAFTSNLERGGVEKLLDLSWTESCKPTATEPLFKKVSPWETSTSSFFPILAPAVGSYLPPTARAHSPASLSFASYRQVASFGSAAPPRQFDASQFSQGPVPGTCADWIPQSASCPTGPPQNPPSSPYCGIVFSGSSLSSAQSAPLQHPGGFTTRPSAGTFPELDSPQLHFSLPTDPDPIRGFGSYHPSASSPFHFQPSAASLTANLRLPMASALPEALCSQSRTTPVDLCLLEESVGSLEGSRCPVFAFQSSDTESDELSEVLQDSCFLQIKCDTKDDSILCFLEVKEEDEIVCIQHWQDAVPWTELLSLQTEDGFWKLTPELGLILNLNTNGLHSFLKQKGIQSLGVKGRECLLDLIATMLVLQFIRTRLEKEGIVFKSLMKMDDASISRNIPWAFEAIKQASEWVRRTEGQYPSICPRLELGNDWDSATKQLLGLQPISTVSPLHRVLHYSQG

Row | SMILES | Papp A→B at 2 h, 10 µM [1] [×10⁻⁶ cm/s] | CL/F [2] [mL/min/kg] | IC50 [4] [µM] | other results
1 | CCOc1ccc(-c2nnc([C@H]3C[C@H](NC(=O)c4ccccn4)C3)n2-c2ccccc2F)nc1 | 39.5 to 40 | 34.8 | > 10 | Activity (RKO): Active; Activity [3]: Non-Toxic; Activity [5]: Non-Toxic
2 | CS(=O)(=O)c1ccc(-c2nnc([C@H]3C[C@H](NC(=O)c4cccc5cccnc45)C3)n2-c2ccccc2F)nc1 |  | 28.2 |  | 
3 | O=C(N[C@H]1C[C@H](c2nnc(-c3ccccn3)n2-c2ccccc2F)C1)c1ccnc2cc(F)cnc12 |  | 16.5 |  | 
4 | O=C(N[C@H]1C[C@H](c2nnc(-c3ccncn3)n2-c2ccccc2Cl)C1)c1ccnc2cccnc12 | 3.1 |  |  | 
5 | N#Cc1ccc2c(c1)[nH]c(=O)n2[C@H]1C[C@H](c2nnc(-c3ccncn3)n2-c2ccccc2Cl)C1 |  |  | > 10 | IC50 [6]: > 10 µM; IC50 [7]: > 10 µM; IC50 [8]: > 10 µM
